System: rituximab binding mimetope peptide
Assay: Peptide based ELISA: biotinylated mimetope peptides on streptavidin/neutravidin plates capture the antibody
Settings: biotinylated peptide on coated plate, peroxidase labeled secondary anti-Fc antibody
Experimental: FIG. 2 (A) illustrates one embodiment of the lateral flow assay validating that rituximab binding mimetope peptide function in immunoassays and competes with the native antigen (CD20). FIG. 2 (A) is a standard curve for rituximab by peptide based ELISA. Biotinylated peptides are bound onto neutravidin coated ELISA plates. Rituximab is diluted in TBST. […] The solid line indicates the mean of the buffer control and the dashed line represents the mean +10 times the SD of the buffer control.
To confirm that a synthetic peptide captures the antibody, ELISAs were performed. Peptides biotinylated at the C-terminus were coated onto streptavidin coated plates and then incubated with a dilution serious of antibody. Binding was detected via a peroxidase labeled secondary anti-Fc antibody. Specificity was confirmed by lack of signal from either total Ig or using a different antibody. […] The antibody was fluorescently labeled and the cell staining evaluated with or without a molar excess of the presumed mimetope as well as control peptides. […]
FIG. 2 illustrates one embodiment of the lateral flow assay validating that rituximab binding mimetope peptide function in immunoassays and competes with the native antigen (CD20). […] Fluorescently labeled rituximab was incubated with primary CLL cells and evaluated by flow cytometry (solid line). […]

rituximab: monoclonal antibody; native antigen CD20
sensitivity of peptide ELISA for the antibody: 4 µg/mL
